Reference: PubChem BioAssay (NCI)
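Five compound concentrations were applied to cells in 96-well plates for 48 hours; endpoints were derived by simple linear interpolation of the resulting dose-response curve. TGI is the concentration that stops growth completely.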

Key:
Assay in all cases: NCI-60 cell line screen, 48 h
[1] = system: 786-0 renal
[2] = system: A549 NSCLC
[3] = system: ACHN renal
[4] = system: CCRF-CEM leukemia
[5] = system: COLO 205 colon
[6] = system: DLD-1 colon
[7] = system: EKVX NSCLC
[8] = system: HCC-2998 colon
[9] = system: HCT-116 colon
[10] = system: HCT-15 colon
[11] = system: HL-60(TB) leukemia
[12] = system: HOP-18 NSCLC
[13] = system: HOP-62 NSCLC
[14] = system: HOP-92 NSCLC
[15] = system: HT29 colon
[16] = system: KM20L2 colon
[17] = system: LOX IMVI melanoma
[18] = system: LXFL 529 NSCLC
[19] = system: M19-MEL melanoma
[20] = system: MALME-3M melanoma
[21] = system: MOLT-4 leukemia
[22] = system: NCI-H226 lung
[23] = system: NCI-H23 lung
[24] = system: NCI-H460 lung
[25] = system: OVCAR-3 ovarian
[26] = system: OVCAR-5 ovarian
[27] = system: OVCAR-8 ovarian
[28] = system: RPMI-8226 leukemia
[29] = system: RXF 393 renal
[30] = system: RXF-631 renal
[31] = system: SF-268 CNS
[32] = system: SF-295 CNS
[33] = system: SF-539 CNS
[34] = system: SK-MEL-2 melanoma
[35] = system: SK-MEL-28 melanoma
[36] = system: SK-OV-3 ovarian
[37] = system: SN12C renal
[38] = system: SNB-19 CNS
[39] = system: SNB-75 CNS
[40] = system: SNB-78 CNS
[41] = system: SR leukemia
[42] = system: SW-620 colon
[43] = system: TK-10 renal
[44] = system: U251 CNS
[45] = system: UACC-257 melanoma
[46] = system: UACC-62 melanoma
[47] = system: UO-31 renal
[48] = system: XF 498 CNS
[49] = system: A498 renal
[50] = system: DMS 114 small cell lung
[51] = system: IGROV1 ovarian
[52] = system: K-562 leukemia
[53] = system: KM12 colon
[54] = system: NCI-H522 lung
[55] = system: OVCAR-4 ovarian
[56] = system: CAKI-1 renal
[57] = system: DMS 273 small cell lung
[58] = system: M14 melanoma
[59] = system: SK-MEL-5 melanoma

Measured: TGI

CCOC(=O)NC(=O)c1cn(CCSCCOC(=O)NCCCCCCNC(=O)OCCSCCn2cc(C(=O)NC(=O)OCC)c(=O)n(C)c2=O)c(=O)n(C)c1=O
51.3 µM: [19]
72.2 µM: [20]
65.9 µM: [27]
66.8 µM: [28]
1.02 µM: [12]
73.8 µM: [22]
85.4 µM: [48]
43 µM: [11]
52.6 µM: [9]
40.3 µM: [44]
79.8 µM: [1]
64 µM: [30]
80.1 µM: [33]
not listed: [49] | [50] | [51] | [52] | [53] | [54] | [55] | [56] | [57] | [58] | [59]
> 100 µM: all other assays above

O=C1CCC2(c3ccc(Cl)cc3)Nc3ccccc3N12 (stereo not drawn)
90.6 µM: [14]
not listed: [4] | [25] | [36] | [46] | [56] | [57] | [58] | [59]
> 100 µM: all other assays above

CC(C)N(C(=O)C12C3C4C5C3C1(C(=O)O)C5C42)C(C)C (stereo not drawn)
not listed: [12] | [22] | [29] | [41]
> 100 µM: all other assays above

N#CC(NNC(=O)Cc1ccccc1)c1ccc([N+](=O)[O-])cc1 (stereo not drawn)
not listed: [7] | [8] | [16] | [25] | [30] | [38] | [48] | [49] | [50] | [56]
> 100 µM: all other assays above
